Laboratory results: paper PMC12040169 (PLOS Biology, 2025)

assay: in vitro; settings: human, hela cells, % viability

Row | Structure (SMILES) | viability at 28.5 h, 10 µM [%]
1 | CC(=O)Cn1nnnc1C [CBK020588] | 99.6
2 | NNC(=O)c1ccc(Oc2ccc(C(=O)NN)cc2)cc1 [CBK260995] | 85.7
3 | CCOCCCNC(=O)c1cnn2c(C)c(CC)c(C)nc12 [CBK162129] | 93.7
4 | CC1CCC(C(N)=O)CN1c1cc(Br)ccn1 (stereo not shown) [CBK304856] | 94.9
5 | c1ccc(CCCN2CCN(Cc3ccccn3)CC2)cc1 [CBK263461G] | 91.6
6 | Cc1noc(C2(O)CCN(Cc3cccc(Cl)c3F)C2)n1 (stereo not shown) [CBK304748] | 99.3
7 | O=C(CNC1CCN(Cc2ccccc2)CC1)Nc1ccc(Cl)cc1C(=O)c1ccccc1Cl [CBK074770] | 107
8 | O=C(COc1ccc([N+](=O)[O-])cc1)Nc1cccc2nsnc12 [CBK263808] | 94.8
9 | CC(=O)Nc1ccc(NC(=O)CC2(CC(=O)O)CCCC2)cc1 [CBK296931] | 97.3
10 | CC(C)NC(=O)N1C[C@@H]2C[C@H](C1)c1ccc(-c3cccnc3)c(=O)n1C2 [CBK289184] | 97.5
11 | COc1ccc(CN2CCN(Cc3ccco3)CC2)cc1OCc1ccccc1 [CBK264225] | 105
12 | CCN(CC)C(=O)c1sc2ncccc2c1NS(=O)(=O)c1ccc(C)c([N+](=O)[O-])c1 [CBK050618] | 112
13 | COc1ccccc1NCc1c(O)c(Br)cc2oc3c(c12)CCCC3 [CBK160398] | 93.4
14 | Cc1ccc(C(=O)Nc2cccc(OC(=O)c3cc(S(=O)(=O)N4CCCCC4)ccc3Cl)c2)cc1 [CBK261368] | 97.8
15 | C/C(=N\NC(=O)CSc1nc2ccccc2n1Cc1ccccc1)c1ccco1 [CBK263180] | 118
16 | O=C(c1ncoc1-c1ccc(F)cc1)N1CCN2CCCC2C1 (stereo not shown) [CBK282399] | 90.1
17 | C(=N\Nc1nc2ccccc2[nH]1)/c1cccs1 [CBK025417] | 87.6
18 | c1ccc2nc(N3CCCC3)c(Sc3nc[nH]n3)nc2c1 [CBK115265] | 90.9
19 | Cc1cc(C)c(-n2nnnc2SCc2ccc(F)cc2)c(C)c1 [CBK100994] | 103
20 | c1cncc(CNc2nccnc2-c2ccsc2)c1 [CBK089314] | 113
21 | CC(=O)NC(c1ccccn1)C1CCN(Cc2cccc(F)c2)CC1 (stereo not shown) [CBK285461] | 104
22 | Cc1ccc2[nH]cc(CCN3CCC(C(=O)NC(=O)Nc4ccccc4F)CC3)c2c1 [CBK034974] | 93

Row | Structure (SMILES) | viability at 28.5 h, 10 µM [%]
23 | Cc1ccc(C(C)C)c(OCc2ccc(C(=O)O)o2)c1 [CBK078089] | 108
24 | Nc1nc2c([nH]c(=O)n2[C@H]2C[C@@H](O)[C@@H](CO)O2)c(=O)[nH]1 [CBK201269] | 94.7
25 | CC(C)Nc1cncc(OCc2cccnc2)n1 [CBK115879] | 102
26 | Cc1n[nH]c(C)c1CCC(=O)N/N=C/c1ccc(Cl)cc1Cl [CBK262901] | 86.6
27 | Cc1nc(C2(O)CCCN(C3CCCCC3)CC2)sc1COc1ccc(F)c(F)c1 (stereo not shown) [CBK286499] | 86.4
28 | Cc1cccc(=O)n1CCCNc1cc(C2CCOC2)ncn1 (stereo not shown) [CBK306992] | 84.4
29 | O=C(c1ccccc1)N1C[C@@H](c2ccsc2)[C@@H]2CN(Cc3cccc(Cl)c3)CC[C@@H]21 [CBK285603] | 108
30 | CCC(Sc1nnc(-c2ccc([N+](=O)[O-])cc2)n1C)C(=O)Nc1ccc(Cl)cc1 (stereo not shown) [CBK265785] | 101
31 | O=C(O)c1cccc(NC(=O)c2cnc(-c3cccc(C(F)(F)F)c3)c(-c3cccc(CO)c3)c2)c1 [CBK037565] | 96
32 | O=C(O)c1ccc(CN2CCC3(C/C=C/CNC(=O)c4ccccc4OCCNC3=O)CC2)cc1 [CBK292002] | 109
33 | O=C(CCc1ccccc1)NC(c1cccc([N+](=O)[O-])c1)c1c(O)ccc2ccccc12 (stereo not shown) [CBK265278] | 109
34 | COc1cc(C(=O)N2CCC3(CC2)CC(=O)c2cc(Br)ccc2O3)ccc1C [CBK149465] | 110
35 | O=C(O)c1ccc(S(=O)(=O)c2ccc3c(c2)C(=O)N(c2nccs2)C3=O)cc1 [CBK261189] | 90.1
36 | Cn1ccc(C(=O)N2CCCC(c3cc4ncccc4[nH]3)C2)n1 (stereo not shown) [CBK283412] | 89.8
37 | O=C(c1cc(-c2ccc(Cl)cc2)[nH]n1)N1CCNCC1 [CBK116548] | 99.5
38 | Cc1ccc(C)c(S(=O)(=O)Nc2ccc(O)c(Sc3nnc[nH]3)c2)c1 [CBK266894] | 95.2
39 | Cc1cccc(C)c1OCC(=O)Nc1ccccc1C(=O)N1CCOCC1 [CBK270096] | 91.2
40 | OCC[C@H]1CN2CCCC2CN1Cc1cccn1-c1ccccc1F (stereo partly shown) [CBK282977] | 93
41 | CCc1ccc2c(c1)C(CCNC(=O)c1c(C)noc1C(F)F)C(=O)N2 (stereo not shown) [CBK304090] | 95.1
42 | c1ccc(Oc2ccccc2-c2ccc(Nc3ccc(N4CCOCC4)cc3)nc2)cc1 [CBK036913] | 108
43 | Cc1ccc(C)c(NS(=O)(=O)c2cc(C(=O)NCc3ccccn3)ccc2C)c1 [CBK269110] | 98.3
44 | Fc1cc2c3c(c1)c1c(n3CCO2)CCNCC1 [CBK018018C] | 102

Row | Structure (SMILES) | viability at 28.5 h, 10 µM [%]
45 | COc1ncc(-c2nccnc2OCCOc2ccccc2)c(OC)n1 [CBK106752] | 91.1
46 | COc1ccc(-c2cnc(N3CCOCC3)c3nccn23)cc1 [CBK091285] | 87.2
47 | Cc1nn(C)c(C(=O)NNC(=S)Nc2ccc(S(N)(=O)=O)cc2)c1Br [CBK266963] | 92.5
48 | C[C@H](c1ccccc1)n1c(=O)[nH]c2ncc(-c3cncc4ccccc34)nc21 [CBK064709] | 90.4
49 | c1cc(COc2ccc(N3CCNCC3)nn2)co1 [CBK022562] | 95.7
50 | Cc1cccc(=O)n1CCCn1cc(C2CCCNC2)nn1 (stereo not shown) [CBK306946] | 91
51 | COc1ccc(-c2cc(C(=O)N3CCC(S(C)(=O)=O)C3)cnc2-c2ccccc2)cn1 (stereo not shown) [CBK036706] | 99.7
52 | CCOc1cc(-c2cc(C(=O)O)c3ccccc3n2)ccc1O [CBK266848] | 103
53 | O=C1Cc2c(ccc3ccccc23)C2(CCN(CC3CCCCO3)CC2)N1 (stereo not shown) [CBK039395] | 98.8
54 | CCOC(=O)c1ccnc(-c2cc3ccccc3o2)c1 [CBK149253] | 101
55 | O=c1c2ccccc2nc2n1CCN(Cc1c(F)cccc1F)CC2 [CBK284817] | 88.7
56 | O=C(NCCN1CCOCC1)c1nnc(C(=O)Nc2cccc(Cl)c2)s1 [CBK294405] | 93.9
57 | Cc1ccc(C#N)cc1S(=O)(=O)NC(=O)COCC1CC1 [CBK304427] | 113
58 | O=C(O)C(Cc1cnc[nH]1)N1C(=O)c2ccccc2C1=O (stereo not shown) [CBK217815] | 110
59 | COc1ccc([C@@H]2CN(C(=O)c3ccccc3)[C@H]3CCN(Cc4ccc(F)cc4)C[C@@H]23)cc1 [CBK285581] | 109
60 | OC(CSc1ncnc2sc3c(c12)CCC3)Cn1cccn1 (stereo not shown) [CBK304149] | 72.3
61 | Cc1ccc(Cl)c(OC(C)C(=O)N2CCC(CC(N)=O)CC2)c1 (stereo not shown) [CBK305762] | 93
62 | CC1CN(C)c2ccccc2CN1C(=O)Cc1cn2ccsc2n1 (stereo not shown) [CBK306355] | 89.1
63 | O=[N+]([O-])c1cc(CN2CCCCC2)c2cccnc2c1O [CBK265121] | 86.3
64 | C[C@H]1[C@@H]2[C@@H](O)C([C@H](C)C(=O)NC3CC3)CC[C@@]2(C)CC[C@@H]1NC(=O)C1CC1 (stereo partly shown) [CBK289442] | 87.1
65 | COc1c(I)cc(Br)cc1/C=N/NC(=O)CC#N [CBK025764] | 91.8
66 | COC(=O)c1sc2ncccc2c1NS(=O)(=O)Cc1ccccc1[N+](=O)[O-] [CBK049974] | 102

Row | Structure (SMILES) | viability at 28.5 h, 10 µM [%]
67 | O=C(NCc1cccnc1)c1ncoc1-c1cccs1 [CBK283974] | 87.5
68 | CC(C)(C)c1cc(C(=O)NCC(=O)NCC(=O)O)cc(C(C)(C)C)c1 [CBK262200] | 96
69 | CC1CCN(S(=O)(=O)c2ccc(NC(=O)C3=COCCO3)cc2)CC1 [CBK295332] | 102
70 | Cc1cc(COc2nccnc2N2CCN(CCCn3c(=O)[nH]c4ccccc43)CC2)no1 [CBK084199] | 107
71 | O=C(COc1ccc(-c2ccccc2)cc1)N/N=C/c1ccncc1 [CBK262210] | 93.2
72 | Cc1nc(C)c(-c2csc(Nc3ncccn3)n2)s1 [CBK263297B] | 87.4
73 | COc1ccc(-c2noc(CSc3nnc(-c4ccncc4)n3C)n2)cc1 [CBK268245] | 96.8
74 | COc1ccc2c(c1)cc(C(=O)NCc1cncn1CC(C)C)n2C [CBK307193] | 89.3
75 | CCOC(=O)c1[nH]c2ccccc2c1NC(=O)c1ccoc1 [CBK160169] | 107
76 | COCc1c(Br)c(C)nc(OCC(=O)O)c1C#N [CBK266532] | 96.9
77 | COc1ccnc(N2CCc3c(ncn3C3CC3)C2)n1 [CBK304816] | 95.7
78 | Cc1nn(-c2ccccc2)c(Cl)c1C1NC(=O)c2c(sc(C)c2C)N1 (stereo not shown) [CBK288086] | 96
79 | O=C(c1cc[nH]n1)N1CCOCC1 [CBK027868] | 89.2
80 | CC(C)(C)c1ccc(-n2cc(-c3ccc(F)cc3)nn2)cc1 [CBK113112] | 103
81 | O=C(CCN1CCc2ccccc2C1)Nc1ccccc1F [CBK264202] | 94.9
82 | Cn1ncc2c(NCC(=O)N3CCNCC3)nc(C(C)(C)C)nc21 [CBK307702] | 120
83 | Cc1ccc(N2C(=O)c3ccccc3C2Nc2ccccc2)nc1 (stereo not shown) [CBK113238] | 101
84 | Cc1cc(C)nc(NC(=O)C(C)Oc2ccc(Cl)cc2C)n1 (stereo not shown) [CBK268111] | 94.8
85 | CCSc1nnc(-c2ccc([N+](=O)[O-])cc2)n1CC(C)C [CBK076724T] | 108

same assay, conditions: human, hela cells, % viability, bulk resorufin, single well

Row | Structure (SMILES) | viability at 28.5 h, 10 µM [%]
86 | CCN1C(=O)/C(=C/Nc2ccc(S(N)(=O)=O)cc2)C(=O)NC1=S [CBK265687] | 112
87 | CCOC(=O)C1(c2ccccc2)CCN(C(=O)COc2ccc(F)cc2)CC1 [CBK132176] | 93.8
88 | CCOc1cc(C=C2C(=O)NC(=O)NC2=O)ccc1OS(=O)(=O)c1ccc([N+](=O)[O-])cc1 [CBK263614] | 82.9
